Reference: patent publication US20230414771A1, “PREPARATION AND USE OF IMMUNOSTIMULATORY CONJUGATED COMPLEXES FOR TARGETED DELIVERY AND ACTIVATION” (YAFEI SHANGHAI BIOLOGY MEDICINE SCIENCE & TECHNOLOGY CO., …, priority 2020, published 2023)
Read-outs that look alike come from different tables or passages of the source. Where a SMILES comes first, the peptide text is derived from it. The star is where a group is joined. Doxorubicin(3'-N) = COc1cccc2c1C(=O)c1c(O)c3c(c(O)c1C2=O)C[C@@](O)(C(=O)CO)C[C@@H]3O[C@H]1C[C@H](N*)[C@H](O)[C@H](C)O1; MeOCH2CH2OCH2CO = COCCOCC(=O)*

Columns and labels:
[1] = tested on: M2 macrophages; test: Cytotoxicity screening, inhibition rate of M2 macrophages at 10 uM; type: cell-based, C57BL/6 mice; settings: 10 uM drug per well, 3 wells, relative to the drug-free group
Description: After the cell count in Example 13, the cell concentration was adjusted with the culture medium, and the cells were seeded in a 96-well culture plate at […] of cell suspension per well, wherein the seeding concentration of CD8+ T cells was 100000 cells/well, and the seeding concentration of M2 macrophages was 20000 cells/well. The 96-well plate was incubated overnight for 24 hour at 37° C. in a carbon dioxide (5%) incubator. After 24 hours, 100 ul of cell culture solutions containing different concentrations of drugs were added to the 96-well culture plate. At the same time, a control well (0.1% DMSO) with no drug added and only the corresponding drug solvent and a zero-adjusted well (Blank) with only medium and no cells added was set. Each set was prepared in triplicate and the plates were incubated for 48 hours at 37° C. in a 5% CO2 incubator. After 48 hours, 20 μl MTT (5 mg/ml) was added to each well and the incubation was continued for 4 hours. The culture medium was then gently aspirated, and 150 μl DMSO was added to each well as solvent for dissolution. After dissolution, the absorbance at 490 nm was measured with a microplate reader.
Cytotoxicity screening experiments for some compounds were performed for M2 macrophage inhibition as in embodiment 14.

[2] = Water solubility test (observation and HPLC); type: physicochemical; settings: thermodynamic from solid
Description: The compounds prepared in accordance with the examples of the disclosure and the reference compounds C1, C2, C3 and C4 were lyophilized (−70° C.).

[3] = tested on: acidified human breast cancer (MDA-MB435) tumor tissue homogenate; test: Activation efficiency of S-C-A linkers in tumor tissue homogenate, HPLC; type: biochemical; settings: C is AAN, 1 mg/ml, homogenate pH 6.0, 37° C.
Description: When C is AAN, the activation of the different S-C-A linkers and the control linker is evaluated in an activation assay. They were dissolved and diluted tenfold using S-C-A conjugates to a concentration of 0.1 mM/ml. The sample compounds were added at a concentration of 1 mg/ml to 100 μg of acidified human breast cancer (MDA—MB435) tumor tissue homogenate (pH 6.0) at 37° C. The enzyme in the tumor tissue homogenate was released and detected by HPLC to compare the efficiency of activation of the linker by the tumor tissue.
The effect of the D-type tripeptide on the activation efficiency was examined in comparison to the native peptide sequence linker cleaved by Legumain, S1 in MI-S is —CH2CH2—CONH—, S2: 2 peg.

[4] = tested on: HT1080 tumors; test: HT1080 tumor model in nude mice, 36 umol/kg; type: in vivo; settings: for inhibition in vivo at 36 µmol/kg: Mus musculus, read-out: Tumor inhibition rate Day 28
Description: • 1. Animals: nude mice aged 6-8 weeks, all female. • 2. Preparation of tumor models • 1) HT1080 cells were purchased from ATCC and characterized according to the instructions provided. […] Randomization was performed when the tumor size reached 100 mm^3. Treatment was then initiated, and the day of initiation of treatment was counted as Day 1. • 3) Treatment process
According to the clinical application of the corresponding compound, the drug was administered intravenously (IV). The compounds indicated in the table were administered at a low dose and at the same dose of 36 umol/kg.

[5] = tested on: Human hepatoma HepG2 cells; test: Human liver cancer HepG2 tumors in nude mice; type: in vivo; settings: for inhibition in vivo at 54 µmol/kg: HepG2, iv, 672 h
Description: • 1. Animals: nude mice aged 6-8 weeks, all female. • 2. Preparation of tumor models
Human hepatoma HepG2 cells were purchased from ATCC and identified according to the instructions provided. […] Randomization was performed when the tumor size reached 100 mm^3.
Treatment was then initiated, and the day of initiation of treatment was counted as Day 1. • 3) Treatment process
According to the clinical application of the corresponding compound, the drug was administered intravenously (IV). The compound and the control drug were administered at a dose of 54 umol/kg, and DOX could only be administered at a dose of 18 umol/kg due to toxicity limitations.

[6] = tested on: CT26 tumor cells; test: MTT assay of N-CBP and HSA-QHL-095-N-CBP; type: cell-based; settings: 48 hours, CT26 tumor cells and CD8+ T cells seeded
Description: After counting the separated and cultured cells, adjust the cell concentration with culture medium, inoculate the cells on a 96-well culture plate with 100 μl cell suspension per well, 100000 cells/well of CD8+ T cells and 20000 cells/well of CT26 tumor cells. The 96-well plate was incubated overnight for 24 hour at 37° C. in a carbon dioxide (5%) incubator. After 24 hours, 100 ul of cell culture medium containing different concentrations of drugs was added to the 96-well culture plate, and control wells (0.1% DMSO) without drugs but with corresponding drug solvent were set, and blank wells (Blank) with medium but without cells were set. Each set was prepared in triplicate and the plates were incubated for 48 hours at 37° C. in a 5% CO2 incubator. After 48 hours, 20 μl MTT (5 mg/ml) was added to each well and the incubation was continued for 4 hours. The culture medium was then gently aspirated, and 150 μl DMSO was added to each well as solvent for dissolution. After dissolution, the absorbance at 490 nm was measured with a microplate reader.

[7] = 36 umol/kg IV once a week for 3 weeks
[8] = 54 umol/kg IV once a week for 4 weeks
[9] = Mus musculus, read-out: Tumor inhibition rate (%) Day 28

Row | SMILES | Inhibition rate of M2 macrophages [1] | solubility [2] | Tumor volume (mm^3) Day 28 [4, 7] | Tumor volume (mm^3) Day 28 [5, 8] | inhibition in vivo at 54 µmol/kg [5, 9] | further results
1 | CC(NC(=O)CCOCCOCCOCCOCCNC(=O)CCN1C(=O)C=CC1=O)C(=O)NC(C)C(=O)NC(CC(N)=O)C(=O)Nc1ccc(COC(=O)N2CC3(C2)C(=O)[O][Pt-2]([NH3+])([NH3+])[O]C3=O)cc1 (stereo not drawn) [QHL-092-N-CBP] | 75.8% | > 10 mg/mL | – | – | – | –
2 | COc1cccc2c1C(=O)c1c(O)c3c(c(O)c1C2=O)C[C@@](O)(C(=O)CO)C[C@@H]3O[C@H]1C[C@H](NC(=O)[C@H](CC(C)C)NC(=O)[C@H](CC(N)=O)NC(=O)[C@H](C)NC(=O)[C@H](C)N)[C@H](O)[C@H](C)O1 [AANL-DOX, reference compound] (H-AANL-{Doxorubicin(3'-N)}) | 16.9% | – | 318.5 ± 197.6 mm^3 | 1564 ± 689.4 mm^3 | 46% | Activation efficiency (%) ([3]; Table 2-1): 42.1%; inhibition in vivo at 36 µmol/kg ([4]; HT-1080, iv, 672 h): 81.8%
3 | COc1cccc2c1C(=O)c1c(O)c3c(c(O)c1C2=O)C[C@@](O)(C(=O)CO)C[C@@H]3O[C@H]1C[C@H](N)[C@H](O)[C@H](C)O1 [DOX, doxorubicin, reference compound] | – | – | 754.4 ± 587.4 mm^3 | – | – | inhibition at 10 µM ([1]; Mus musculus, Macrophage): 12.6%; inhibition in vivo at 36 µmol/kg ([4]; HT-1080, 672 h, 36 umol/kg IV once a week for 3 weeks): 56.8%; Tumor volume (mm^3) Day 28 ([5]; DOX 18 umol/kg IV (toxicity limitations)): 1683.4 ± 1087.4 mm^3; inhibition in vivo at 18 µmol/kg ([5]; Mus musculus, HepG2, 672 h, DOX 18 umol/kg IV (toxicity limitations), read-out: Tumor inhibition rate (%) Day 28): 41.9%
4 | [NH3+][Pt-2]1([NH3+])[O]C(=O)C2(CNC2)C(=O)[O]1 [N-CBP] | – | – | – | – | – | in vitro cytotoxicity (FIGS. 13 and 14) [6]: stronger than carboplatin and oxaliplatin and weaker than cisplatin
5 | CC(NC(=O)CCOCCOCCOCCOCCOCCOCCNC(=O)CCN1C(=O)C=CC1=O)C(=O)NC(C)C(=O)NC(CC(N)=O)C(=O)Nc1ccc(COC(=O)N2CC3(C2)C(=O)[O][Pt-2]([NH3+])([NH3+])[O]C3=O)cc1 (stereo not drawn) [QHL-095-N-CBP] | 68.7% | > 10 mg/mL | – | – | – | –
6 | COCCOCC(=O)N[C@@H](C)C(=O)N[C@@H](C)C(=O)N[C@@H](CC(N)=O)C(=O)N[C@@H](CC(C)C)C(=O)N[C@H]1C[C@H](O[C@H]2C[C@](O)(C(=O)CO)Cc3c(O)c4c(c(O)c32)C(=O)c2c(OC)cccc2C4=O)O[C@@H](C)[C@H]1O [C4 PEG-AANL-DOX, reference compound] (MeOCH2CH2OCH2CO-AANL-{Doxorubicin(3'-N)}) | 10.5% | < 5 mg/mL | – | 848.7 ± 347.5 mm^3 | 70.7% | Activation efficiency (%) ([3]; Table 2-3): 66.9%
